From ChEMBL document CHEMBL3596161, “Progress Toward the Development of Noscapine and Derivatives as Anticancer Agents” (J Med Chem, 2015)
Each block holds one compound with its values, some of them ahead of it.

Columns and labels:
Tubulin (Homo sapiens) [1] = molecular target: T1, Tubulin (Homo sapiens) (UniProt P68371+Q9H4B7+P0DPH7+P68366+Q13509+Q71U36+P04350+Q3ZCM7+P07437+P68363+Q9BQE3+Q6PEY2+Q13885+Q9BVA1+Q9BUF5); assay: Inhibition of MAPs-rich tubulin (unknown origin) polymerization at 50 uM; format: protein-complex assay
U-251 [2] = assay: Cell cycle arrest in human TMZ-resistant U251 cells assessed as accumulation at S phase at 30 uM after 24 hrs by flow cytomtery analysis (reference value: 33.05%); format: functional
U-251 [3] = assay: Cell cycle arrest in human U251 cells assessed as accumulation at G1 phase at 30 uM after 24 hrs by flow cytomtery analysis (reference value: 59.62%); format: functional
U-251 [4] = assay: Cell cycle arrest in human U251 cells assessed as accumulation at G2/M phase at 30 uM after 24 hrs by flow cytomtery analysis (reference value: 22.31%); format: functional
HeLa [5] = assay: Cell cycle arrest in human HeLa cells assessed as accumulation at S phase after 24 hrs by FACS analysis (reference value: 12.9%); format: functional
U-251 [6] = assay: Cell cycle arrest in human TMZ-resistant U251 cells assessed as accumulation at G1 phase at 30 uM after 24 hrs by flow cytomtery analysis (reference value: 47.53%); format: functional
Tubulin (Homo sapiens) [7] = molecular target: T1, Tubulin (Homo sapiens); assay: Inhibition of tubulin polymerization in human HeLa cells assessed as shortening of microtubules at 50 uM; format: cell-based; parameters: scale not given: the % may be the effect or the level left
Tubulin (Homo sapiens) [8] = molecular target: T1, Tubulin (Homo sapiens); assay: Inhibition of tubulin polymerization in human HeLa cells assessed as polymeric tubulin level at 1 uM; format: cell-based; parameters: scale not given: the % may be the effect or the level left
Tubulin (Homo sapiens) [9] = molecular target: T1, Tubulin (Homo sapiens); assay: Inhibition of tubulin polymerization in human HeLa cells assessed as polymeric tubulin level at 100 uM; format: cell-based; parameters: scale not given: the % may be the effect or the level left
A549 = assay: Cytotoxicity against human A549 cells; format: functional, cell-based
HeLa [10] = assay: Growth inhibition in human HeLa cells assessed as reduction of growth at 50 uM; format: functional; conditions: read-out: GI
Tubulin (Homo sapiens) [11] = molecular target: T1, Tubulin (Homo sapiens); assay: Inhibition of tubulin polymerization in human HeLa cells assessed as shortening of microtubules at 20 uM; format: cell-based; parameters: scale not given: the % may be the effect or the level left
[12] = Antitumor activity against human H460 cells xenografted in athymic nu/nu mouse assessed as tumor regression at 450 mg/kg/day, po administered for 24 days; format: functional, NCI-H460
Tubulin (Homo sapiens) [13] = molecular target: T1, Tubulin (Homo sapiens); assay: Inhibition of tubulin polymerization in human HeLa cells assessed as microtubules spent time in attenuated state at 50 uM; format: cell-based; parameters: scale not given: the % may be the effect or the level left
HeLa [14] = assay: Antimitotic activity against human HeLa cells; format: functional, cell-based
[15] = Antitumor activity against human H460 cells xenografted in athymic nu/nu mouse assessed as tumor regression at 550 mg/kg/day, po administered for 24 days; format: functional, NCI-H460
[16] = Cytotoxicity against human H460 cells after 72 hrs; format: functional, cell-based; conditions: NCI-H460, 72 h
[17] = Antiproliferative activity against human LN229 cells assessed as decrease in colony formation; format: functional, cell-based; conditions: LN-229
U-251 [18] = assay: Cell cycle arrest in human U251 cells assessed as accumulation at S phase at 30 uM after 24 hrs by flow cytomtery analysis (reference value: 18.08%); format: functional
HeLa [19] = assay: Cell cycle arrest in human HeLa cells assessed as accumulation at G2/M phase by measuring 4N DNA content at 6.4 uM by flow cytometry; format: functional
HeLa [20] = assay: Cell cycle arrest in human HeLa cells assessed as accumulation at G1 phase after 24 hrs by FACS analysis (reference value: 45.2%); format: functional
CCRF-CEM = assay: Cytotoxicity against human CEM cells; format: functional, cell-based
Tubulin (Homo sapiens) [21] = molecular target: T1, Tubulin (Homo sapiens); assay: Inhibition of tubulin polymerization in human HeLa cells assessed as polymeric tubulin level at 10 uM; format: cell-based; parameters: scale not given: the % may be the effect or the level left
[22] = Antiproliferative activity against human A172 cells assessed as decrease in colony formation; format: functional, cell-based; conditions: A 172
HeLa [23] = assay: Induction of apoptosis in human HeLa cells after 24 hrs; format: functional
U-251 [24] = assay: Antiproliferative activity against human U251 cells assessed as decrease in colony formation; format: functional, cell-based
U-251 [25] = assay: Cell cycle arrest in human TMZ-resistant U251 cells assessed as accumulation at G2/M phase at 30 uM after 24 hrs by flow cytomtery analysis (reference value: 19.42%); format: functional
C6 = assay: Antitumor activity against rat C6 cells xenografted in mouse assessed as reduction of tumor volume relative to control; format: functional
HeLa [26] = assay: Cell cycle arrest in human HeLa cells assessed as accumulation at G2/M phase after 24 hrs by FACS analysis (reference value: 16.5%); format: functional
[27] = Antitumor activity against human H460 cells xenografted in athymic nu/nu mouse assessed as tumor regression at 300 mg/kg/day, po administered for 24 days; format: functional, NCI-H460
HeLa [28] = assay: Cytotoxicity against human HeLa cells; format: functional, cell-based
MCF7 = assay: Cytotoxicity against human MCF7 cells; format: functional, cell-based
Tubulin [29] = assay: Binding affinity to tubulin (unknown origin) by fluorescence assay; format: protein-complex assay, Homo sapiens
[30] = Cytotoxicity against human MCF-7 FLV1000 cells expressing […]; format: functional, cell-based
Tubulin [31] = assay: Binding affinity to tubulin (unknown origin); format: protein-complex assay, Homo sapiens
[32] = Antitumor activity against human H460 cells xenografted in athymic nu/nu mouse assessed as tumor regression at 10 mg/kg/day, po administered for 24 days; format: functional, NCI-H460

inhibition (Tubulin (Homo sapiens) [1]): 74%
SMILES: COc1ccc2c(c1OCCCCS(=O)(=O)O)C(=O)O[C@@H]2[C@H]1c2c(cc3c(c2OC)OCO3)CCN1C

Activity (Tubulin (Homo sapiens) [7]): 24.3%
Activity (Tubulin (Homo sapiens) [8]): 58.3%
Activity (Tubulin (Homo sapiens) [9]): 59.2%
Activity (Tubulin (Homo sapiens) [11]): 21.6%
Activity (Tubulin (Homo sapiens) [13]): 12.7%
EC50 (HeLa [14]): 18.4 µM
Activity (Tubulin (Homo sapiens) [21]): 59.2%
IC50 (U-251 [24]): 40 µM
SMILES: COc1ccc2c(c1OC)C(=O)O[C@@H]2[C@H]1c2c(cc3c(c2OC)OCO3)CCN1C [NOSCAPINE]
Activity (U-251 [2]): 25.33%
Activity (U-251 [3]): 28.92%
Activity (U-251 [4]): 47.75%
Activity (HeLa [5]): 11.1%
Activity (U-251 [6]): 21.54%
IC50 (A549): 72.9 µM
inhibition of growth at 50 µM (HeLa [10]): 42.4%
Activity [12]: 65%
Activity [15]: 86%
IC50 [16]: 34.7 µM
IC50 [17]: 70 µM
Activity (U-251 [18]): 23.33%
Activity (HeLa [19]): 15.2%
Activity (HeLa [20]): 6.4%
IC50 (CCRF-CEM): 14.5 µM
IC50 [22]: 20 µM
Activity (HeLa [23]): 50%
Activity (U-251 [25]): 23.13%
growth inhibition (GI) (C6): 60%
Activity (HeLa [26]): 42.9%
Activity [27]: 49%

SMILES: COc1ccc(CN2CCc3cc4c(c(OC)c3[C@@H]2[C@H]2OC(=O)c3c2ccc(OC)c3OC)OCO4)cc1
IC50 (HeLa [28]): 17.9 µM
IC50 (A549): 33.5 µM
IC50 (MCF7): 28.7 µM
IC50 (CCRF-CEM): 7.7 µM

Kd (Tubulin [29]): 86 µM
SMILES: COc1ccc2c(c1OC)C(=O)O[C@@H]2[C@H]1c2c(c([N+](=O)[O-])c3c(c2OC)OCO3)CCN1C

SMILES: O=C1c2c(O)ccc(O)c2C(=O)c2c(NCCNCCO)ccc(NCCNCCO)c21 [MITOXANTRONE]
IC50 [30]: 0.435 µM
IC50 (MCF7): 0.026 µM

SMILES: COc1ccc2c(c1OC)C(=O)O[C@@H]2[C@H]1c2c(cc3c(c2OC)OCO3)CCN1Cc1ccc([N+](=O)[O-])cc1
IC50 (HeLa [28]): 23.7 µM
IC50 (A549): 49 µM
IC50 (MCF7): 38.2 µM
IC50 (CCRF-CEM): 10 µM

inhibition (Tubulin (Homo sapiens) [1]): 61%
SMILES: COc1ccc2c(c1OCCCS(=O)(=O)O)C(=O)O[C@@H]2[C@H]1c2c(c(Br)c3c(c2OC)OCO3)CCN1C

SMILES: COc1cccc(CN2CCc3cc4c(c(OC)c3[C@@H]2[C@H]2OC(=O)c3c2ccc(OC)c3OC)OCO4)c1
IC50 (HeLa [28]): 15.3 µM
IC50 (A549): 26.9 µM
IC50 (MCF7): 24.5 µM
IC50 (CCRF-CEM): 6.7 µM

SMILES: COc1ccc2c(c1OC)C(=O)O[C@@H]2[C@H]1c2c(cc3c(c2OC)OCO3)CCN1Cc1ccc(Br)cc1
IC50 (HeLa [28]): 21.2 µM
IC50 (A549): 42.4 µM
IC50 (MCF7): 34.1 µM
IC50 (CCRF-CEM): 9 µM

Kd (Tubulin [31]): 106 µM
EC50 (HeLa [14]): 3.6 µM
SMILES: COc1ccc2c(c1OC)CO[C@@H]2[C@H]1c2c(c(Br)c3c(c2OC)OCO3)CCN1C
Activity (HeLa [19]): 72.7%

SMILES: CC(=O)O[C@@]12CO[C@@H]1C[C@H](O)[C@@]1(C)C(=O)[C@H](O)C3=C(C)[C@@H](OC(=O)[C@H](O)[C@@H](NC(=O)OC(C)(C)C)c4ccccc4)C[C@@](O)([C@@H](OC(=O)c4ccccc4)[C@H]21)C3(C)C [DOCETAXEL ANHYDROUS]
Activity [32]: 93%
